This note sets out measurements from patent US10472341B2, “Bicyclic tetrahydrothiazepine derivatives useful for the treatment of neoplastic and/or infectious diseases” (APEIRON BIOLOGICS AG, priority 2015, dated 2019).

Structures are written as SMILES. Counter-ions that a name gives are not always drawn.

One experiment concerns OT-II cells. The experiment in a line: OT-II transfer model, intravenous administration. The format is in vivo, mouse. As to conditions: LPS & OVA. As for the experimental part: (§1) • Single cell suspension of splenocytes was prepared from the spleen by rinsing cells through a sterile 70 μm filter with PBS • Cells were collected by centrifugation in an 15 ml tube, the cell pellet was resuspended in 1 ml of Erylyse buffer and incubated at room temperature for 5 minutes, tubes were filled up with PBS and cells were washed twice • Cells were counted and resuspended in the desired buffer volume for MACS-enrichment or flow cytometric analysis Isolation of CD4 T Cells from OT-II Transgenic Mice • Splenocytes were resuspended in MACS buffer ([…] MACS-buffer/10^7 cells) • CD4 T cells were isolated using the CD4 T cell isolation kit (Miltenyi) with LS-columns following manufacturer's recommendations CFSE-Labeling of T Cells • Cells were resuspended in PBS with 0.1% BSA at 1×10^7 cells/ml and CFSE-solution was added to final concentration of 2.5 μM CFSE • Incubated for 10 min at 37° C., swung each 2 min • Same volume of FCS added and incubated for 5 min at room temperature • Cells were washed twice with RMPI-10% FCS medium • Cells were counted and resuspended in PBS or medium at desired concentration OT-II Transfer • Day 0: OT-II cells were transferred in PBS (3*10^6. Cells in 100 μl PBS) by retro-orbital injection • Day 1: WT mice got OVA vaccinated (subcut. flank, 10 μg LPS, 2 μg OVA per animal) • 2 & 4 h later compounds were administrated; for oral dosing compound was used as suspension (0.5% methylcellulose in water), for i.v. dosing compound was solubilized in DMSO and diluted with PBS • Day 2: compounds were administrated twice in the morning (with 2 h time interval) • Day 3: Mice were sacrificed & splenocytes were isolated • T cell proliferation & phenotype was determined by flow cytometry • Flow cytometry-Staining (all Abs purchased from eBioscience and used as recommended by the manufacturer): B220-eF450, CD4-PE, CD25PerCPCy5.5, CD69-PC7, TCRVa2-APC, CD8-AF700, CD3-eF780; CFSE; 7-AAD • Acquisition on Beckman-Coulter Gallios, Analysis using Kaluza Software OT-I Transfer to Mice with B16-F10-OVA Tumors • Day 0: 100000 B16-F10-OVA tumor cells were inoculated subcutaneously at the flank of WT-mice • Day 7: OT-I cells were transferred in PBS (3*10^6. […]

The subject of the next experiment is CD4 T cells. Description: CD69 expression on aCD3/aCD28 stimulated isolated human CD4 T cells (flow cytometry). The experiment is classed as cell-based. As to conditions: 24 h after TCR stimulation, read-out: Activity Class CD69 (CD4). Put shortly:
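Isolated CD4 and CD8 T cells plated at 80000 cells per well in Xvivo medium and stimulated with anti-CD3/28 mAbs in presence of compound. CD69 expression measured by flow cytometry 24 h after TCR stimulation.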
A general note: Flow cytometry measures light scatter and fluorescence of single cells or particles in a stream.

The next experiment deals with Monocytes. Description: FC receptor stimulation on myeloid cells (monocytes, precoated anti-GD2-Abs): TNF-alpha, IL-1, IL-6. The experiment is classed as cell-based, human. The method, then:
Isolated Monocytes were plated in Xvivo medium at 1.5*10^5 cells per in 96 well culture plates and stimulated by precoated anti-GD2-Abs (10 μg/ml, Apeiron) where indicated. Cytokine secretion was determined by enzyme-linked immunosorbent assay (ELISA). The results of the above experiment titled “Enhancement of reactivity of immune cells to stimulation by tumor-cell bound therapeutic antibody” indicate that compounds can enhance FcR stimulation of immune cells. However, in a set-up as used therein, it is difficult to subtract the effects of tumor-cell contact from the effects of Fc-receptor stimulation. Therefore, the effect of FcR-stimulation by the same anti-GD2-Ab was tested in a tumor-cell free assay set-up, where the anti-GD2 antibodies were coated to cell culture plates, thereby mimicking cell-bound antibodies.

Another experiment has as its system OT-I T cells. The experiment in a line: OT-I transfer to mice with B16-F10-OVA tumors: tumor antigen-specific T cell proliferation. The format is in vivo, mouse. As to conditions: B16-F10-OVA tumor bearing mice; for OT-I T cell proliferation: 10 mg/kg orally; for Proliferation [% proliferated OT-I T cells]: 10 mg/kg dosed orally. The method, then:
as §1

Regarding `Cl.N[C@H]1CS(=O)(=O)c2cc(F)c(C(=O)NCCCC(F)(F)F)cc2N(Cc2ccc(Cl)cc2)C1=O` [Example 70, (3R)-3-amino-5-[(4-chlorophenyl)methyl]-8-fluoro-1,1,4-trioxo-N-(4,4,4-trifluoro-butyl)-2,3,4,5-tetrahydro-1λ^6,5-benzothiazepine-7-carboxamide hydrochloride], in the experiment on OT-II cells (1 mg/kg), the “Proliferated OT-II cells, average” value stood at 18.70 % gated. In the experiment with OT-II cells (10 mg/kg), the “CD69+ cells, B cells of recipient animal” value was found to be 8.62 % gated; the “CD69+ cells, CD8 T cells of recipient animal” value was 7.08 % gated; the “CD69+ cells, WT CD4 T cells of recipient animal” value is reported as 12.26 % gated; the “CD69+ cells, transferred OT-II cells” value turned out to be 59.47 % gated. Also, in the experiment with CD4 T cells, the EC50 was < 1580 nM.
As to `CC(C)NC(=O)c1cc2c(cc1F)S(=O)(=O)C[C@H](N)C(=O)N2Cc1ccc(Cl)cc1.Cl` [Example 77, (3R)-3-amino-5-[(4-chlorophenyl)methyl]-8-fluoro-1,1,4-trioxo-N-(propan-2-yl)-2,3,4,5-tetrahydro-1λ^6,5-benzothiazepine-7-carboxamide hydrochloride], the IL-1 with Monocytes (FcR stimulated, 0.01 μM) turned out to be 1.14 ng/mL; in the experiment with Monocytes (FcR stimulated, 0.03 μM), 1.52 ng/mL; in the experiment with Monocytes (FcR stimulated, 0.1 μM) it was 1.09 ng/mL; with Monocytes (FcR stimulated, 0.3 μM), 4.16 ng/mL; with Monocytes (FcR stimulated, 1 μM), 5.88 ng/mL; with Monocytes (FcR stimulated, 3 μM), 5.50 ng/mL. The IL-1 is 7.44 ng/mL with Monocytes (FcR stimulated, 10 μM) and 7.77 ng/mL in the experiment with Monocytes (FcR stimulated, 30 μM). The IL-6 in the experiment with Monocytes (FcR stimulated, 0.01 μM) was determined as 1.61 ng/mL; in the experiment with Monocytes (FcR stimulated, 0.03 μM) it was 2.33 ng/mL; with Monocytes (FcR stimulated, 0.1 μM) it was 2.10 ng/mL; in the experiment on Monocytes (FcR stimulated, 0.3 μM), 5.65 ng/mL; in the experiment on Monocytes (FcR stimulated, 1 μM), 7.46 ng/mL; in the experiment on Monocytes (FcR stimulated, 3 μM), 5.93 ng/mL. The IL-6 in the experiment on Monocytes (FcR stimulated, 10 μM) was 5.86 ng/mL; with Monocytes (FcR stimulated, 30 μM) it was 6.20 ng/mL; in the experiment with Monocytes (unstimulated, 0.1 μM) it was 0.14 ng/mL; in the experiment on Monocytes (unstimulated, 0.3 μM), 0.13 ng/mL; in the experiment on Monocytes (unstimulated, 1 μM), 0.14 ng/mL; in the experiment on Monocytes (unstimulated, 3 μM), 0.13 ng/mL. Also, the IL-6 was 0.13 ng/mL in the experiment on Monocytes (unstimulated, 10 μM) and 0.13 ng/mL in the experiment on Monocytes (unstimulated, 30 μM). The TNF-alpha is 1.62 ng/mL in the experiment with Monocytes (FcR stimulated, 0.01 μM); 2.49 ng/mL in the experiment on Monocytes (FcR stimulated, 0.03 μM); 2.57 ng/mL in the experiment with Monocytes (FcR stimulated, 0.1 μM); 6.57 ng/mL with Monocytes (FcR stimulated, 0.3 μM); 11.02 ng/mL with Monocytes (FcR stimulated, 1 μM); 14.11 ng/mL in the experiment with Monocytes (FcR stimulated, 3 μM). In addition, the TNF-alpha with Monocytes (FcR stimulated, 10 μM) was found to be 16.44 ng/mL; in the experiment on Monocytes (FcR stimulated, 30 μM), 14.85 ng/mL; with Monocytes (unstimulated, 30 μM), 0.02 ng/mL. For the same compound, the “activation of myeloid cells by FcR stimulation (TNF-alpha, IL-1, IL-6 secretion)” value with Monocytes (monocytes, plate-coated anti-GD2 antibodies) was “directly enhanced the activation of myeloid cells by FcR stimulation, which resulted in increased secretion of TNF-alpha, IL-1 and IL-6”.
Take `N[C@H]1CS(=O)(=O)c2cc(F)c(C(=O)NC3CC3(F)F)cc2N(Cc2ccc(Cl)cc2)C1=O` (stereo partly drawn) [Example 1, (3R)-3-amino-5-[(4-chlorophenyl)methyl]-N-(2,2-difluorocyclopropyl)-8-fluoro-1,1,4-trioxo-2,3,4,5-tetrahydro-1λ^6,5-benzothiazepine-7-carboxamide hydrochloride]: the “OT-I T cell proliferation” value is recorded as “significantly (p=0.006) increased” in the experiment on OT-I T cells (spleen) and “highly significantly (p=0.0002) enhanced” with OT-I T cells (tumor-draining lymphnodes). Also, the entries for the “Proliferation [% proliferated OT-I T cells]” value in the experiment with OT-I T cells (Lymph node) and in the experiment on OT-I T cells (Spleen) were 12.28% and 8.62%, respectively.
